In the supplement of paper PMC10307832:

Experiments:
Experiment in all cases: relative viability (nuclei count vs DMSO), 5 days (fraction); higher = more cells survive
[1] = compound: Cc1ccc2nc(NCCN)c3ncc(C)n3c2c1 + CS(=O)(=O)CCNCc1ccc(-c2ccc3ncnc(Nc4ccc(OCc5cccc(F)c5)c(Cl)c4)c3c2)o1 [Lapatinib] (partner 2 µM)
Method in brief: (§1)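 Values are medians from duplicate plates. Each reflects relative viability, defined as the nuclei count of treated wells over that of vehicle wells. Lung cancer cell lines in 1536-well plates were pin-tool dosed one day after seeding with one drug alone or with a fixed anchor-drug dose plus five library-drug doses (not always all listed) in √10 steps, then fixed, stained and imaged at 4× after 5 days.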

Salubrinal + Palbociclib = compound: O=C(/C=C/c1ccccc1)NC(NC(=S)Nc1cccc2cccnc12)C(Cl)(Cl)Cl [Salubrinal] + CC(=O)c1c(C)c2cnc(Nc3ccc(N4CCNCC4)cn3)nc2n(C2CCCC2)c1=O [Palbociclib] (partner 0.5 µM)
Method in brief: as §1

Salubrinal + Luminespib = compound: O=C(/C=C/c1ccccc1)NC(NC(=S)Nc1cccc2cccnc12)C(Cl)(Cl)Cl [Salubrinal] + CCNC(=O)c1noc(-c2cc(C(C)C)c(O)cc2O)c1-c1ccc(CN2CCOCC2)cc1 [Luminespib] (partner 0.01 µM)
Method in brief: as §1

Salubrinal + Phenformin = compound: O=C(/C=C/c1ccccc1)NC(NC(=S)Nc1cccc2cccnc12)C(Cl)(Cl)Cl [Salubrinal] + N=C(N)NC(=N)NCCc1ccccc1 [Phenformin] (partner 250 µM)
Method in brief: as §1

Row | Cell Line | relative viability ([1]; first compound 0.04 µM) | relative viability ([1]; first compound 0.1265 µM) | relative viability ([1]; first compound 0.4 µM) | relative viability ([1]; first compound 1.265 µM) | relative viability ([1]; first compound 4 µM) | relative viability (Salubrinal + Palbociclib; first compound 0.08 µM) | relative viability (Salubrinal + Palbociclib; first compound 0.253 µM) | relative viability (Salubrinal + Palbociclib; first compound 0.8 µM) | relative viability (Salubrinal + Palbociclib; first compound 2.53 µM) | relative viability (Salubrinal + Palbociclib; first compound 8 µM) | relative viability (Salubrinal + Luminespib; first compound 0.08 µM) | relative viability (Salubrinal + Luminespib; first compound 0.253 µM) | relative viability (Salubrinal + Luminespib; first compound 0.8 µM) | relative viability (Salubrinal + Luminespib; first compound 2.53 µM) | relative viability (Salubrinal + Luminespib; first compound 8 µM) | relative viability (Salubrinal + Phenformin; first compound 0.08 µM) | relative viability (Salubrinal + Phenformin; first compound 0.253 µM) | relative viability (Salubrinal + Phenformin; first compound 0.8 µM) | relative viability (Salubrinal + Phenformin; first compound 2.53 µM) | relative viability (Salubrinal + Phenformin; first compound 8 µM)
1 | NCI-H1734 | 1.11 | 1 | 1.13 | 1.07 | 0.941 | 0.393 | 0.334 | 0.392 | 0.344 | 0.343 | 0.174 | 0.175 | 0.199 | 0.17 | 0.241 | 0.416 | 0.375 | 0.412 | 0.429 | 0.366
2 | NCI-H1755 | 1.1 | 1.03 | 0.934 | 1.1 | 1.04 | 0.486 | 0.415 | 0.446 | 0.462 | 0.493 | 0.414 | 0.637 | 0.707 | 0.293 | 0.378 | 0.639 | 0.676 | 0.652 | 0.625 | 0.552
3 | NCI-H1792 | 0.944 | 0.904 | 0.837 | 0.857 | 0.81 | 0.789 |  | 0.678 | 0.686 | 0.66 | 0.574 |  | 0.472 | 0.624 | 0.587 | 0.258 |  | 0.368 | 0.239 | 0.262
4 | NCI-H1793 | 0.942 | 0.697 | 0.734 | 0.581 | 0.737 | 0.366 | 0.37 | 0.323 | 0.284 | 0.287 | 0.231 | 0.168 | 0.206 | 0.162 | 0.244 | 0.446 | 0.349 | 0.391 | 0.394 | 0.33
5 | NCI-H1915 | 1.01 |  | 0.68 | 0.991 | 0.947 | 0.506 |  | 0.576 | 0.559 | 0.568 | 0.918 | 0.559 | 1.26 | 0.71 | 0.752 | 0.39 | 0.341 | 0.389 | 0.355 | 0.365
6 | NCI-H1944 | 0.772 | 0.805 | 0.642 | 0.978 | 0.758 | 0.394 | 0.372 | 0.315 | 0.299 | 0.337 | 0.792 | 1.04 | 0.807 | 0.733 | 0.831 | 0.198 | 0.191 | 0.214 | 0.185 | 0.178
7 | NCI-H1975 | 1.01 | 0.925 | 0.935 | 0.95 | 0.849 | 0.473 | 0.424 | 0.675 | 0.717 | 0.567 | 0.223 | 0.394 | 0.292 | 0.257 | 0.282 | 0.465 | 0.359 | 0.434 | 0.427 | 0.375
8 | NCI-H1993 | 0.844 | 0.887 | 0.695 | 0.74 | 0.629 | 0.718 | 0.596 | 0.737 |  | 0.648 | 0.899 | 0.681 | 0.987 | 0.896 | 0.827 | 0.464 | 0.545 | 0.506 | 0.503 | 0.509
9 | NCI-H2009 | 1.03 | 0.958 | 0.88 | 0.928 | 0.836 | 0.224 | 0.171 | 0.197 | 0.225 | 0.172 | 1.09 | 0.966 | 0.984 | 0.995 | 0.878 | 0.534 | 0.492 | 0.489 | 0.454 | 0.411
10 | NCI-H2023 | 0.949 | 0.884 | 0.651 | 1.26 | 0.69 | 0.346 | 0.32 | 0.359 | 0.419 | 0.328 | 0.884 | 0.703 | 0.874 | 0.517 | 0.884 | 0.471 | 0.37 | 0.461 | 0.368 | 0.276
11 | NCI-H2085 | 0.91 | 0.771 | 0.728 | 0.785 | 0.817 | 0.457 | 0.471 | 0.484 | 0.438 | 0.427 | 0.473 | 0.47 | 0.562 | 0.366 | 0.496 | 0.68 | 0.634 | 0.682 | 0.749 | 0.665
12 | NCI-H2087 | 1.25 | 1.14 | 1.16 | 1.08 | 1.07 | 0.214 | 0.235 | 0.17 | 0.234 | 0.206 | 0.151 | 0.164 | 0.16 | 0.187 | 0.183 | 0.472 | 0.361 | 0.527 | 0.471 | 0.476
13 | NCI-H2126 | 0.793 | 0.783 | 0.765 | 0.791 | 0.593 | 0.382 | 0.383 | 0.363 | 0.388 | 0.386 | 0.958 | 0.833 | 1.03 | 0.951 | 0.877 | 0.512 | 0.537 | 0.562 | 0.563 | 0.519
14 | NCI-H2170 | 0.307 | 0.263 | 0.249 | 0.302 | 0.26 | 0.436 | 0.326 | 0.447 | 0.395 | 0.372 | 0.854 | 0.686 | 0.642 | 0.643 | 0.714 | 0.468 | 0.423 | 0.241 | 0.403 | 0.373
15 | NCI-H2228 | 1.07 | 1.3 | 0.884 | 1.15 | 1.04 | 0.613 |  | 1.04 | 0.752 | 0.567 | 0.105 | 0.0961 | 0.154 | 0.108 | 0.174 | 0.319 | 0.265 | 0.441 | 0.315 | 0.247
16 | NCI-H2347 | 0.99 | 0.99 | 0.908 | 0.987 | 0.87 | 0.452 | 0.462 | 0.415 | 0.388 | 0.387 | 0.786 | 0.63 | 0.381 | 0.512 | 0.403 | 0.321 | 0.35 | 0.399 | 0.363 | 0.43
17 | NCI-H2405 | 1.06 | 1.06 | 1.06 | 1.08 | 0.835 | 0.536 | 0.484 | 0.55 | 0.524 | 0.521 | 0.591 | 0.865 | 0.62 | 0.612 | 0.668 | 0.42 | 0.387 | 0.441 | 0.329 | 0.408
18 | NCI-H3122 | 1.06 | 0.994 | 0.997 | 1.12 | 1 | 0.195 | 0.238 | 0.172 | 0.195 | 0.176 | 0.117 | 0.112 | 0.0978 | 0.118 | 0.1 | 0.42 | 0.371 | 0.412 | 0.367 | 0.356
19 | PC-3 [JPC-3] | 0.475 | 0.45 | 0.42 | 0.448 | 0.424 | 0.514 | 0.579 | 0.539 | 0.28 | 0.629 | 0.747 | 0.511 | 0.671 | 0.736 | 0.571 | 0.471 | 0.448 | 0.529 | 0.475 | 0.467
20 | PC-14 | 0.398 | 0.307 | 0.41 | 0.289 | 0.295 | 0.708 | 0.434 | 0.609 | 0.47 | 0.384 | 0.23 | 0.118 | 0.134 | 0.151 | 0.126 | 0.696 | 0.551 | 0.576 | 0.677 | 0.687
21 | RERF-LC-KJ | 0.834 | 0.925 | 0.911 | 0.809 | 0.84 | 1.14 | 1.04 | 1.13 | 1.09 | 0.964 | 1.31 | 1.37 | 1.41 | 1.13 | 1.08 | 0.442 | 0.39 | 0.414 | 0.408 | 0.413
22 | SK-LU-1 | 1.06 | 0.951 | 0.889 | 0.948 | 0.852 | 0.368 | 0.377 | 0.411 | 0.427 | 0.341 | 0.182 | 0.201 | 0.206 | 0.214 | 0.198 | 0.647 | 0.4 | 0.594 | 0.555 | 0.435
23 | SK-MES-1 | 0.503 | 0.512 | 0.493 | 0.447 | 0.472 | 0.33 | 0.356 | 0.33 | 0.305 | 0.259 | 0.86 | 0.932 | 0.861 | 0.613 | 0.364 | 0.703 | 0.64 | 0.668 | 0.672 | 0.605
24 | SW 1573 | 1.07 | 1.1 | 1.19 | 1.42 | 0.954 | 0.445 | 0.355 | 0.378 | 0.374 | 0.3 | 0.211 | 0.26 | 0.206 | 0.238 | 0.169 | 0.388 | 0.327 | 0.389 | 0.332 | 0.299
25 | UMC-11 | 1.03 | 1.04 | 0.877 | 0.898 | 0.91 | 0.304 | 0.344 | 0.349 | 0.313 | 0.299 | 1.06 | 0.835 | 1.14 | 1.05 | 1.14 | 0.354 | 0.354 | 0.335 | 0.332 | 0.299
